{
  "source": "paper PMC2642990",
  "about": "“The Glycogen-Binding Domain on the AMPK β Subunit Allows the Kinase to Act as a Glycogen Sensor” (Cell Metabolism, 2009)",
  "key": {"[1]": {"test_system": "dephosphorylation of AMPK by protein phosphatase-1", "test": "dephosphorylation of AMPK by catalytic subunit of protein phosphatase-1", "format": "biochemical, rat", "details": "data not shown", "source_text": "(§1) The inhibitory effects observed to this point represent allosteric inhibition, i.e., direct effects on the activity of the AMPK kinase domain of carbohydrate binding at a different site, i.e., the GBD on the β subunit. It was important to establish whether carbohydrates might also affect phosphorylation and dephosphorylation by upstream kinases and phosphatases. […] To confirm that the latter was not an effect on LKB1, we tested the effect of the oligosaccharide on phosphorylation of a synthetic peptide substrate, i.e., LKBtide ([Lizcano et al., 2004])."}, "[2]": {"test_system": "dephosphorylation of purified rat liver AMPK by protein phosphatase-2Cα (PPM1A)", "test": "dephosphorylation of rat liver AMPK by PP2Cα, western blotting of pThr-172", "format": "biochemical", "details": "1 mM oligosaccharide", "method": "(§2) Figure 7 Effect of Oligosaccharide Number 5, See Figure 6, on Dephosphorylation of AMPK by PP2Cα and on Phosphorylation by CaMKKβ and LKB1 (A) Effect of oligosaccharide on dephosphorylation by PP2Cα. Rat liver AMPK was incubated with PP2Cα in the presence and absence of 1 mM oligosaccharide; at various times, levels of total α subunit and phosphorylation on Thr-172 were assessed by western blotting. (B) Quantification of results as in (A); means ± SEM of two experiments. (C) Effect of oligosaccharide on phosphorylation by CaMKKβ. Rat liver AMPK was dephosphorylated using PP1, okadaic acid was added to inhibit the phosphatase, and the protein was incubated with MgATP and CaMKKβ in the presence and absence of 1 mM oligosaccharide. At various times, levels of total α subunit and of phosphorylation on Thr-172 were assessed by western blotting. (D) Quantification of results as in (C); means ± SEM (n = 2). (E) Time course of effect of oligosaccharide on phosphorylation by LKB1, performed as in (C) but with LKB1 in place of CaMKKβ. (F) Effect of oligosaccharide on phosphorylation of a synthetic peptide substrate of LKB1 (mean ± SD; n = 2). (G) Inhibition of AMPK by bovine liver glycogen, a phosphorylase limit dextrin, and a mock-treated sample. IC50 values were determined as in Figure 2A and curves generated from the best-fit parameters. […]"}, "[3]": {"test_system": "phosphorylation of Thr-172 by CaMKKβ", "test": "phosphorylation of Thr-172 of rat liver AMPK by CaMKKβ", "format": "biochemical", "details": "1 mM oligosaccharide", "method": "as §2"}, "LKB1": {"molecular_target": "T1, LKB1 (Homo sapiens, UniProt Q15831)", "T1 sequence (Q15831 1-433)": "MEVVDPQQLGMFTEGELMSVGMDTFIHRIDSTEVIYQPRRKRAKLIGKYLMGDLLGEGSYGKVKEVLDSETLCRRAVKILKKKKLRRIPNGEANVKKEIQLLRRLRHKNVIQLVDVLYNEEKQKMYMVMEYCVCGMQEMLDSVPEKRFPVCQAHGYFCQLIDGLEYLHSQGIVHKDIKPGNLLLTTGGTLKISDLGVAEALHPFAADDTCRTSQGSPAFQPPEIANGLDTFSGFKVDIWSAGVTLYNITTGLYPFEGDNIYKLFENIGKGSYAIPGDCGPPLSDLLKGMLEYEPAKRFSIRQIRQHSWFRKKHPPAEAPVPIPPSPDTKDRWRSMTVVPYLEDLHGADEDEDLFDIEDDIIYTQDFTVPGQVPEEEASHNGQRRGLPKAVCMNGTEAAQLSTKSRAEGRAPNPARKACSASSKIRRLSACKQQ", "T1 sequence (Q7RTN6 1-431 partner)": "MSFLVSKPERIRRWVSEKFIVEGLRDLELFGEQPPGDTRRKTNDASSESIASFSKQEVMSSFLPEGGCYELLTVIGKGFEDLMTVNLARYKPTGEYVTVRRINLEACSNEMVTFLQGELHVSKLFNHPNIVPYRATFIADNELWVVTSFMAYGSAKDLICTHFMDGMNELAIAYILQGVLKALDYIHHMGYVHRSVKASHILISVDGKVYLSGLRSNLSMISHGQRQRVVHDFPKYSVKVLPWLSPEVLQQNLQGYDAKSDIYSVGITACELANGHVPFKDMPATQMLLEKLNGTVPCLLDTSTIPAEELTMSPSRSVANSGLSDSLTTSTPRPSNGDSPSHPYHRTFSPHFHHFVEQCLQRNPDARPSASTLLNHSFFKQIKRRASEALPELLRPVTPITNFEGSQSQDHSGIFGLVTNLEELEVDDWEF", "T1 sequence (Q9Y376 1-341 partner)": "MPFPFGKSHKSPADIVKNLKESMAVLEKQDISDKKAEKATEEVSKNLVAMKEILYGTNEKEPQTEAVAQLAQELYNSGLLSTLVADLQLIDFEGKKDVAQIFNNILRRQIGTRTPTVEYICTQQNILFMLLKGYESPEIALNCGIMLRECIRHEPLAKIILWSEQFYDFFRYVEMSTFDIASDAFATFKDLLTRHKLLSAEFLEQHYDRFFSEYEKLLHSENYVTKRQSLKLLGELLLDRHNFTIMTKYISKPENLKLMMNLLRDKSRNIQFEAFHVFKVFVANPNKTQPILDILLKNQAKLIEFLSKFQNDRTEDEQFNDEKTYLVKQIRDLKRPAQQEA", "test": "phosphorylation of synthetic peptide substrate LKBtide by LKB1", "format": "biochemical", "details": "1 mM oligosaccharide", "source_text": "as §1\nFigure 7 Effect of Oligosaccharide Number 5, See Figure 6, on Dephosphorylation of AMPK by PP2Cα and on Phosphorylation by CaMKKβ and LKB1 (A) Effect of oligosaccharide on dephosphorylation by PP2Cα. Rat liver AMPK was incubated with PP2Cα in the presence and absence of 1 mM oligosaccharide; at various times, levels of total α subunit and phosphorylation on Thr-172 were assessed by western blotting. (B) Quantification of results as in (A); means ± SEM of two experiments. (C) Effect of oligosaccharide on phosphorylation by CaMKKβ. […] At various times, levels of total α subunit and of phosphorylation on Thr-172 were assessed by western blotting. (D) Quantification of results as in (C); means ± SEM (n = 2). […] IC50 values were determined as in Figure 2A and curves generated from the best-fit parameters. […]"}, "[4]": {"test_system": "phosphorylation of Thr-172 by LKB1", "test": "phosphorylation of Thr-172 of rat liver AMPK by LKB1", "format": "biochemical", "details": "1 mM oligosaccharide", "method": "as §2"}},
  "data": [
    {"smiles": "CO[C@H]1O[C@H](CO[C@H]2O[C@H](CO)[C@@H](O[C@H]3O[C@H](CO)[C@@H](O)[C@H](O)[C@H]3O)[C@H](O)[C@H]2O)[C@@H](O)[C@H](O)[C@H]1O", "note": "[Oligosaccharide 5, Glcα1→4Glcα1→6Glcα-OMe]", "values": [
      {"measurement": "effect on dephosphorylation by protein phosphatase-1", "setting": "[1]", "value": "negative results"},
      {"measurement": "effect on dephosphorylation by PP2Cα", "setting": "[2]", "value": "no significant effect"},
      {"measurement": "inhibition of phosphorylation of Thr-172 by CaMKKβ", "setting": "[3]", "value": "marked inhibition"},
      {"measurement": "inhibition of LKBtide phosphorylation", "setting": "LKB1", "value": "no significant inhibition"},
      {"measurement": "extent of inhibition of phosphorylation of the rat liver αβγ complex by LKB1", "setting": "[4]; Figure 7E", "value": "essentially complete"},
      {"measurement": "inhibition of phosphorylation of Thr-172 by LKB1", "setting": "[4]; time course", "value": "marked inhibition"}
    ]}
  ]
}
